This data set can be described thus: Solubility of Compound 1 in solvents. It counts as physicochemical.

One may read the solubility as how much of the substance goes into solution per volume.

`CC(C)(CO)c1cc2cc(NC(=O)C3(c4ccc5c(c4)OC(F)(F)O5)CC3)c(F)cc2n1C[C@@H](O)CO` [Compound 1, (R)-1-(2,2-difluorobenzo[d][1,3]dioxol-5-yl)-N-(1-(2,3-dihydroxypropyl)-6-fluoro-2-(1-hydroxy-2-methylpropan-2-yl)-1H-indol-5-yl)cyclopropanecarboxamide]: the solubility reads like this: (acetonitrile, methanol, ethanol, isopropyl alcohol, acetone, organic solvent or mixture) above 20 mg/mL; (organic solvent or mixture, first solvent, e.g. ethyl acetate, ethanol, isopropyl alcohol, or acetone) above 20 mg/mL; (second solvent, for example heptane or water) below 1 mg/mL.
